Key:
[1] = biological target: T1, K18 aggregates (Tau K18 fragment, amino acids 244 to 372 of human Tau441) (Homo sapiens, UniProt P10636); experiment: Tau K18 disaggregation assay by ThT; type: biochemical; conditions: 2 μM K18 aggregates, 160 to 0.04 μM compound, 30 minutes RT, ThT fluorescence; read-out: TauK18 disaggregation EC50
T1 construct: encompassing amino acids 244 to 372 of the longest isoform (2N4R) of human Tau441; host or cells: bacteria
Method: Tau K18 Disaggregation Assay by ThT
The Tau K18 fragment, encompassing amino acids 244 to 372 of the longest isoform (2N4R) of human Tau441, was expressed in bacteria and purified or bought from SignalChem. For the K18 disaggregation assay by ThT, 35 μM of recombinant K18 in PBS were aggregated for 24 hours at 37° C. in presence of 50 μM of heparin (Sigma-Aldrich) and 10 mM of DTT (Sigma-Aldrich) under shaking at 750 RPM. Compounds were dissolved in anhydrous dimethyl sulfoxide (DMSO, Sigma-Aldrich) to reach a concentration of 10 mM. K18 aggregates and serial dilutions of compounds were mixed together in PBS (volume 50 μL) to a final concentration of 2 μM of K18 aggregates and from 160 to 0.04 μM of compounds. The mixture was incubated for 30 minutes at room temperature (RT), then 40 μL of this mixture were transferred into a black 384-well plate assay (Perkin-Elmer) and mixed with 10 μL of 100 μM ThT in 250 mM glycine (both from Sigma-Aldrich) in PBS. Fluorescence (relative fluorescence units; RFU) was measured in monoplicate or duplicate on a Tecan reader (excitation: 440 nm; emission: 485 nm). Percentage of K18 disaggregation was then calculated and half maximal effective concentration (EC50) was determined using GraphPad Prism version 5 (GraphPad Software) assuming a one-binding site fitting model.

[2] = biological target: T2, flTau aggregates (longest isoform of human Tau, 2N4R; 441 amino acids) (Homo sapiens, UniProt P10636); experiment: Full-length Tau (flTau) disaggregation assay by Thioflavin T (ThT); type: biochemical; conditions: 2 μM flTau aggregates, 160 to 0.04 μM compound, 30 minutes RT, ThT fluorescence
T2 construct: 35 μM of recombinant full-length (fl)Tau in PBS were aggregated for 24 hours; made in house; host or cells: bacteria
Method: Biological Assay Description Full-Length Tau (flTau) Disaggregation Assay by Thioflavin T (ThT)
The longest isoform of human Tau (2N4R; 441 amino acids) was expressed in bacteria and purified. For the Tau disaggregation assay by ThT, 35 μM of recombinant full-length (fl)Tau in PBS were aggregated for 24 hours at 37° C. in presence of 50 μM of heparin (Sigma-Aldrich) and 10 mM of DTT (Sigma-Aldrich) under shaking at 750 RPM. Compounds were dissolved in anhydrous dimethyl sulfoxide (DMSO, Sigma-Aldrich) to reach a concentration of 10 mM.
flTau aggregates and serial dilutions of compounds were mixed together in PBS (volume 50 μL) to a final concentration of 2 μM of flTau aggregates and from 160 to 0.04 μM of compounds. The mixture was incubated for 30 minutes at room temperature (RT), then 40 μL of this mixture were transferred into a black 384-well plate assay (Perkin-Elmer) and mixed with 10 μL of 100 μM ThT in 250 mM glycine (both from Sigma-Aldrich) in PBS. Fluorescence (relative fluorescence units; RFU) was measured in monoplicate or duplicate on a Tecan reader (excitation: 440 nm; emission: 485 nm). Percentage of flTau disaggregation was then calculated and the halfmaximal effective concentration (EC50) was determined using GraphPad Prism version 5 (GraphPad Software) assuming a one-binding site fitting model.

[3] = system: human neuroblastoma cell line overexpressing the full-length form of human Tau carrying the P301L mutation; experiment: Reduction of intracellular Tau aggregation (AlphaLISA); type: cell-based; conditions: compound at 5 μM, 24 h; aggregated Tau normalized to total Tau, relative to DMSO-treated cells
Method: Reduction of Intracellular Tau Aggregation
A human neuroblastoma cell line overexpressing the full-length form of human Tau carrying the P301L mutation was cultured in complete medium [DMEM-F12 4.5 g/L Glutamax (Invitrogen), 15% FBS (Biochrom), 1% Peni/Strep (Invitrogen) supplemented with 2.5 μg/ml of G418 (Sigma-Aldrich) selection antibiotic]. The day before the experiment 5×10^5 cells/well were plated in a 6 well plate in 3 mL of complete medium. The next day, cells were incubated with DMSO or a compound of the present invention at a 5 μM for additional 24 h at 37° C. After incubation, cells were trypsinized, resupsended in 100 μl of homogenization buffer [25 mM Tris-HCl pH 7.4, 150 mM NaCl, 1 mM EDTA, 1 mM EGTA containing phosphatase inhibitors (30 mM NaF, 0.2 mM Na3VO4, 1 nM Okadaic acid, 1 mM PMSF, 5 mM Na4P2O7) and protease inhibitor cocktail (Complete™, Roche)], and then physically lysed with three rapid cycles of freezing and thawing. Samples were then directly tested in the AlphaLISA assay.
Phosphorylated, aggregated, and total Tau were quantified by AlphaLisa using the following antibody pairs: • HT7-Acceptor beads+biotin (BT)-Tau13-Donor beads: Total Tau • HT7-Acceptor beads+biotin (BT)-HT7-Donor beads: Aggregated human Tau
The Tau13 (Abcam) was biotinylated using EZ-Link® NHS-PEO Solid Phase biotinylation kit (Thermo Scientific), while the HT7-biotin was from a commercial source (Thermo Scientific).
For each antibody pairs the concentration of acceptor beads and biotinylated antibodies was optimized. All samples were first tested in a dilution series in PBS in order to identify the linear range and optimal dilution for each sample and assay. For the final protocol, the following reagents were added in a 384-well white OptiPlate (Perkin Elmer): • 5 μL of test diluted sample • 20 μL of the mixture biotin-mAb acceptor beads at the following final concentrations: • HT7-BT at 1.25 nM in combination with HT7-Acc beads at 10 μg/ml • Tau13-BT at 5 nM in combination with HT7-Acc beads at 2.5 μg/ml
After incubation of this mixture at room temperature for 1 h, 25 μL of Streptavidin Donor beads (Perkin Elmer) at 25 μg/mL were added in the dark. Plates were analyzed after 30 min incubation using the EnSpire Alpha instrument and EnSpire Workstation version 3.00.
Data for aggregated Tau were normalized to total Tau and then expressed as percentage of the DMSO-treated cells.

T1 sequence (P10636 561-689): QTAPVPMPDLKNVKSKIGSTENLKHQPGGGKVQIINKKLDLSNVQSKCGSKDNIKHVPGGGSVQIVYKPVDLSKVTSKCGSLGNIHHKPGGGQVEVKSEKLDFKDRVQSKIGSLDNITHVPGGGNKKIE
T2 sequence (P10636 1-441 isoform P10636-8): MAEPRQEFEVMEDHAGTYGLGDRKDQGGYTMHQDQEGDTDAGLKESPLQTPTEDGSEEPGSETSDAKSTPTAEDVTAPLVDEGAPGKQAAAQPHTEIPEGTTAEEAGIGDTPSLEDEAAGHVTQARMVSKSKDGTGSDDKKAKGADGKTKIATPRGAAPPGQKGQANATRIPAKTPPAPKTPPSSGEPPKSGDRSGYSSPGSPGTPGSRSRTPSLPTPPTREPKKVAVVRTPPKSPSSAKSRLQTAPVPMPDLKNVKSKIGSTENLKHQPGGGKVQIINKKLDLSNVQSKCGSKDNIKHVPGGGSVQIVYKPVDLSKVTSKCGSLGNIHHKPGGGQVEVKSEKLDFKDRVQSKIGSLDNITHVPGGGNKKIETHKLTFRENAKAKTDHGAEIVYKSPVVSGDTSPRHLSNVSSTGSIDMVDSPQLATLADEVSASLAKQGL

SMILES	EC50 [1] [µM]	EC50 [2] [µM]	% Reduction of intracellular Tau aggregation [3]
CN(C)[C@@H]1CCc2oc3nc(Nc4ccc5oc(N6CCOCC6)nc5c4)ccc3c2C1 [Example 36]	10 to 25	–	–
CN(C)[C@@H]1CCc2oc3nc(Nc4ccc5nc(N6CCOCC6)sc5c4)ccc3c2C1 [Example 22]	25 to 50	–	–
CN(C)C1CCc2oc3nc(Nc4ccc5nc(N6CCOCC6)oc5c4)ccc3c2C1 (stereo not drawn) [Example 28]	10 to 25	–	–
CN(C)C1CCc2c(c3ccc(Nc4ccc5nc(N6CCC(F)CC6)sc5c4)nc3n2C)C1 (stereo not drawn) [Example 14]	10 to 25	10 to 25	–
CN(C)[C@@H]1CCc2c(c3ccc(Nc4ccc5nc(N6CCC[C@@H](F)C6)oc5c4)nc3n2C)C1 [Example 19]	10 to 25	10 to 25	–
CN(C)C1CCc2oc3nc(Nc4ccc5nc(N6CCOCC6)sc5c4)ccc3c2C1 (stereo not drawn) [Example 20]	25 to 50	–	–
CN(C)C1CCc2[nH]c3nc(Nc4ccc5oc(N6CCOCC6)nc5c4)ccc3c2C1 (stereo not drawn) [Example 30]	–	< 10	–
CN(C)[C@@H]1CCc2c(c3ccc(Nc4ccc5nc(N6CCOCC6)oc5c4)nc3n2C)C1 [Example 17]	–	25 to 50	–
CN(C)C1CCc2[nH]c3nc(Nc4ccc5nc(N6CCOCC6)sc5c4)ccc3c2C1 (stereo not drawn) [Example 29]	–	< 10	–
CC(C)N1CCc2oc3nc(Nc4ccc5sc(N6CCOCC6)nc5c4)ccc3c2C1 [Example 8]	25 to 50	–	–
CN(C)C1CCc2c(c3ccc(Nc4ccc5sc(N6CCC(F)CC6)nc5c4)nc3n2C)C1 (stereo not drawn) [Example 3]	< 10	< 10	++ (++ %50 < x < 25)
CN(C)C1CCc2c(c3ccc(Nc4ccc5sc(N6CCC[C@H](F)C6)nc5c4)nc3n2C)C1 (stereo partly drawn) [Example 15]	< 10	< 10	–
CN(C)C1CCc2[nH]c3nc(Nc4ccc5nc(N6CCOCC6)oc5c4)ccc3c2C1 (stereo not drawn) [Example 32]	–	10 to 25	–
CN(C)[C@@H]1CCc2c(c3ccc(Nc4ccc5oc(N6CCOCC6)nc5c4)nc3n2C)C1 [Example 18]	10 to 25	25 to 50	–
CN(C)[C@H]1CCc2oc3nc(Nc4ccc5nc(N6CCOCC6)sc5c4)ccc3c2C1 [Example 21]	10 to 25	–	–
CN(C)[C@@H]1CCc2oc3nc(Nc4ccc5sc(N6CCOCC6)nc5c4)ccc3c2C1 [Example 33]	< 10	–	–
CC(C)N1CCc2c(c3ccc(Nc4ccc5sc(N6CCC(F)CC6)nc5c4)nc3n2C)C1 [Example 6]	< 10	< 10	–
CN(C)C1CCc2oc3nc(Nc4ccc5oc(N6CCOCC6)nc5c4)ccc3c2C1 (stereo not drawn) [Example 31]	10 to 25	< 10	–

Further lines, with some results ahead:

EC50 [1] [µM]	EC50 [2] [µM]	SMILES	% Reduction of intracellular Tau aggregation [3]
< 10	–	CN(C)[C@H]1CCc2oc3nc(Nc4ccc5oc(N6CCOCC6)nc5c4)ccc3c2C1 [Example 35]	–
< 10	–	CC(C)N1CCc2oc3nc(Nc4ccc5nc(N6CCOCC6)sc5c4)ccc3c2C1 [Example 7]	–
< 10	–	CN(C)C1CCc2oc3nc(Nc4ccc5sc(N6CCOCC6)nc5c4)ccc3c2C1 (stereo not drawn) [Example 5]	–
< 10	< 10	CN(C)C1CCc2c(c3ccc(Nc4ccc5nc(N6CCOCC6)sc5c4)nc3n2C)C1 (stereo not drawn) [Example 10]	–
< 10	–	CN(C)[C@H]1CCc2oc3nc(Nc4ccc5sc(N6CCOCC6)nc5c4)ccc3c2C1 [Example 34]	–
< 10	< 10	CN(C)[C@H]1CCc2c(c3ccc(Nc4ccc5sc(N6CCOCC6)nc5c4)nc3n2C)C1 [Example 11]	–
< 10	< 10	CN(C)C1CCc2c(c3ccc(Nc4ccc5sc(N6CCC[C@@H](F)C6)nc5c4)nc3n2C)C1 (stereo partly drawn) [Example 16]	–
< 10	< 10	CN(C)[C@H]1CCc2c(c3ccc(Nc4ccc5nc(N6CCOCC6)sc5c4)nc3n2C)C1 [Example 13]	–
< 10	–	CN(C)C1CCc2c(c3ccc(Nc4ccc5sc(N6CCOCC6)nc5c4)nc3n2C)C1 (stereo not drawn) [Example 9]	–
